We go through 36 compounds from ChEMBL document CHEMBL6087386, “Radioprotective effectiveness of a novel delta-tocotrienol prodrug on mouse hematopoietic system against 60Co gamma-ray irradiation through inducing granulocyte-colony stimulating factor production” (Eur J Med Chem, 2024).

Active and inactive are the calls of the source. The rule behind the calls is not given here.

The subject of the first series is Mus musculus. The series can be described thus: Induction of G-CSF production in C57BL/6J mouse model at 100 mg/kg, ip measured for 24 hrs by ELISA analysis. Format: functional, organism-based.
Details: not given
As to `Cc1cc(O)cc2c1O[C@](C)(CCCC(C)CCCC(C)CCCC(C)C)CC2` (some centres undefined), the result was inactive.

For `Cc1c(C)c2c(c(C)c1O)CC[C@@](C)(CCCC(C)CCCC(C)CCCC(C)C)O2` (some centres undefined), the result was inactive.

Take `Cc1c(O)cc2c(c1C)O[C@](C)(CCCC(C)CCCC(C)CCCC(C)C)CC2` (some centres undefined): the result was inactive.

Turning to `Cc1cc(O)c(C)c2c1O[C@](C)(CCCC(C)CCCC(C)CCCC(C)C)CC2` (some centres undefined), the result was inactive.

As to `CC(C)=CCC/C(C)=C/CC/C(C)=C/CC[C@]1(C)CCc2c(C)c(O)c(C)c(C)c2O1`, the result was inactive.

The test system of another series is Mus musculus. Put plainly: Induction of G-CSF production in C57BL/6J mouse model at 100 mg/kg, sc measured for 24 hrs by ELISA analysis. Format: functional, organism-based.
Details: not given
`CC(C)=CCC/C(C)=C/CC/C(C)=C/CC[C@]1(C)CCc2cc(OC(=O)Cc3cccnc3)cc(C)c2O1`: the result was Active.

As to `CC(C)=CCC/C(C)=C/CC/C(C)=C/CC[C@]1(C)CCc2cc(OC(=O)CCCC(=O)O)cc(C)c2O1`, the result was Active.

`CC(C)=CCC/C(C)=C/CC/C(C)=C/CC[C@]1(C)CCc2c(C)c(O)cc(C)c2O1`: the outcome was Active.

As to `CC(C)=CCC/C(C)=C/CC/C(C)=C/CC[C@]1(C)CCc2cc(OCCCCO)cc(C)c2O1`, the outcome was Active.

As for `CCCC(CCC)C(=O)Oc1cc(C)c2c(c1)CC[C@@](C)(CC/C=C(\C)CC/C=C(\C)CCC=C(C)C)O2`, the outcome was Active.

For `CNCCOc1cc(C)c2c(c1)CC[C@@](C)(CC/C=C(\C)CC/C=C(\C)CCC=C(C)C)O2`, the result was Active.

With `CC(C)=CCC/C(C)=C/CC/C(C)=C/CC[C@]1(C)CCc2cc(OCC(C)(C)CO)cc(C)c2O1`, the result was Active.

Consider `CC(C)=CCC/C(C)=C/CC/C(C)=C/CC[C@]1(C)CCc2cc(OC(=O)CCCCCC(=O)O)cc(C)c2O1`, for which the result was Active.

For `CC(C)=CCC/C(C)=C/CC/C(C)=C/CC[C@]1(C)CCc2cc(OCC(C)(C)C(=O)O)cc(C)c2O1`, the result was Active.

`CC(C)=CCC/C(C)=C/CC/C(C)=C/CC[C@]1(C)CCc2cc(OCCCO)cc(C)c2O1`: the result was Active.

In the case of `CC(C)=CCC/C(C)=C/CC/C(C)=C/CC[C@]1(C)CCc2cc(OC(=O)c3cccnc3)cc(C)c2O1`, the outcome was Active.

As for `CC(C)=CCC/C(C)=C/CC/C(C)=C/CC[C@]1(C)CCc2cc(OCCCCC(=O)O)cc(C)c2O1`, the outcome was Active.

As to `CC(C)=CCC/C(C)=C/CC/C(C)=C/CC[C@]1(C)CCc2cc(OC(=O)C3CCNCC3)cc(C)c2O1`, the outcome was Active.

Turning to `CC(C)=CCC/C(C)=C/CC/C(C)=C/CC[C@]1(C)CCc2cc(OCCC(=O)O)cc(C)c2O1`, the result was Active.

As for `CC(C)=CCC/C(C)=C/CC/C(C)=C/CC[C@]1(C)CCc2cc(OC(=O)C3CCN(C)CC3)cc(C)c2O1`, the result was Active.

In the case of `CC(C)=CCC/C(C)=C/CC/C(C)=C/CC[C@]1(C)CCc2cc(OCCN)cc(C)c2O1`, the outcome was Active.

As for `CC(C)=CCC/C(C)=C/CC/C(C)=C/CC[C@]1(C)CCc2cc(OC(=O)/C=C/C(=O)O)cc(C)c2O1`, the outcome was Active.

For `CC(C)=CCC/C(C)=C/CC/C(C)=C/CC[C@]1(C)CCc2cc(OC(=O)CN(C)C)cc(C)c2O1`, the outcome was Active.

Take `CC(C)=CCC/C(C)=C/CC/C(C)=C/CC[C@]1(C)CCc2cc(OC(=O)c3ccncc3)cc(C)c2O1`: the outcome was Active.

Take `CC(C)=CCC/C(C)=C/CC/C(C)=C/CC[C@]1(C)CCc2cc(OCCN(C)C)cc(C)c2O1`: the outcome was Active.

With `CC(C)=CCC/C(C)=C/CC/C(C)=C/CC[C@]1(C)CCc2cc(OCCCCCO)cc(C)c2O1`, the outcome was Active.

Take `CC(C)=CCC/C(C)=C/CC/C(C)=C/CC[C@]1(C)CCc2cc(OC(=O)c3ccccn3)cc(C)c2O1`: the outcome was Active.

As for `CC(C)=CCC/C(C)=C/CC/C(C)=C/CC[C@]1(C)CCc2cc(OC(=O)CCC(N)=O)cc(C)c2O1`, the result was Active.

As for `CC(C)=CCC/C(C)=C/CC/C(C)=C/CC[C@]1(C)CCc2cc(OC(=O)CC(C)(C)C(=O)O)cc(C)c2O1`, the outcome was Active.

Consider `CC(C)=CCC/C(C)=C/CC/C(C)=C/CC[C@]1(C)CCc2cc(OCC(=O)O)cc(C)c2O1`, for which the result was Active.

For the compound `CC(C)=CCC/C(C)=C/CC/C(C)=C/CC[C@]1(C)CCc2cc(OC(=O)CCCCC(=O)O)cc(C)c2O1`, the outcome was Active.

`CC(=O)Oc1cc(C)c2c(c1)CC[C@@](C)(CC/C=C(\C)CC/C=C(\C)CCC=C(C)C)O2`: the result was Active.

For the compound `CC(C)=CCC/C(C)=C/CC/C(C)=C/CC[C@]1(C)CCc2cc(O)c(C)c(C)c2O1`, the outcome was Active.

For the compound `CC(C)=CCC/C(C)=C/CC/C(C)=C/CC[C@]1(C)CCc2cc(OCCCC(=O)O)cc(C)c2O1`, the outcome was Active.

For the next series, the system named is Mus musculus. The series can be described thus: Radioprotective activity in C57BL/6J mouse assessed as survival rate at 100 mg/kg, sc preincubated with compound for 24 hrs followed by total body irradiation with 8.5 Gy and measured after 20 days by Kaplan-meier plot analysis. Format: functional. To be noted: light or radiation study, 504 h, time 21 day.
Regarding `CC(C)=CCC/C(C)=C/CC/C(C)=C/CC[C@]1(C)CCc2cc(OC(=O)CCCC(=O)O)cc(C)c2O1`, the survival at 100 mg/kg is 70%.

Take `CC(C)=CCC/C(C)=C/CC/C(C)=C/CC[C@]1(C)CCc2cc(OC(=O)CCCCCC(=O)O)cc(C)c2O1`: the survival at 100 mg/kg is 70%.

For the compound `CC(C)=CCC/C(C)=C/CC/C(C)=C/CC[C@]1(C)CCc2cc(OCCCO)cc(C)c2O1`, the survival at 100 mg/kg is 70%.

With `CC(C)=CCC/C(C)=C/CC/C(C)=C/CC[C@]1(C)CCc2cc(OC(=O)C3CCNCC3)cc(C)c2O1`, the survival at 100 mg/kg is 70%.

Regarding `CC(C)=CCC/C(C)=C/CC/C(C)=C/CC[C@]1(C)CCc2cc(OC(=O)/C=C/C(=O)O)cc(C)c2O1`, the survival at 100 mg/kg is 70%.

As to `CC(C)=CCC/C(C)=C/CC/C(C)=C/CC[C@]1(C)CCc2cc(OC(=O)CN(C)C)cc(C)c2O1`, the survival at 100 mg/kg was 70%.

Regarding `CC(C)=CCC/C(C)=C/CC/C(C)=C/CC[C@]1(C)CCc2cc(OC(=O)CC(C)(C)C(=O)O)cc(C)c2O1`, the survival at 100 mg/kg was found to be 70%.

As for `CC(C)=CCC/C(C)=C/CC/C(C)=C/CC[C@]1(C)CCc2cc(OC(=O)CCCCC(=O)O)cc(C)c2O1`, the survival at 100 mg/kg was determined as 70%.

The next series relates to Mus musculus. Put plainly: Radioprotective activity in C57BL/6J mouse assessed as survival rate at 100 mg/kg, sc preincubated with compound for 24 hrs followed by total body irradiation with 8.5 Gy and measured after 30 days by Kaplan-meier plot analysis. To be noted: Mus musculus, C57BL/6J, light or radiation study, 744 h, time 31 day. Format: functional.
Turning to `CC(C)=CCC/C(C)=C/CC/C(C)=C/CC[C@]1(C)CCc2cc(OC(=O)CCCCCC(=O)O)cc(C)c2O1`, the survival at 100 mg/kg amounted to 90%.

In the case of `CC(C)=CCC/C(C)=C/CC/C(C)=C/CC[C@]1(C)CCc2cc(OC(=O)C3CCNCC3)cc(C)c2O1`, the survival at 100 mg/kg turned out to be 70%.

Take `CC(C)=CCC/C(C)=C/CC/C(C)=C/CC[C@]1(C)CCc2cc(OC(=O)/C=C/C(=O)O)cc(C)c2O1`: the survival at 100 mg/kg amounted to 90%.

Staying with this series, now noted: time 31 day.
For `CC(C)=CCC/C(C)=C/CC/C(C)=C/CC[C@]1(C)CCc2cc(OCCCO)cc(C)c2O1`, the Activity is given as 80%.

System in the next series: not listed separately
The series can be described thus: Stability in C57BL/6J mouse whole blood assessed as half-life. Format: ADME, tissue-based.
Details: not given
Consider `CC(C)=CCC/C(C)=C/CC/C(C)=C/CC[C@]1(C)CCc2cc(OC(=O)CCCC(=O)O)cc(C)c2O1`, for which the half-life was 5.5 min.

Consider `CC(C)=CCC/C(C)=C/CC/C(C)=C/CC[C@]1(C)CCc2cc(OC(=O)CCCCCC(=O)O)cc(C)c2O1`, for which the half-life amounted to 8.6 min.

Take `CCN(CC)CCOC(=O)c1ccc(N)cc1` [PROCAINE]: the half-life was determined as 12.3 min.

As for `CC(C)=CCC/C(C)=C/CC/C(C)=C/CC[C@]1(C)CCc2cc(OC(=O)/C=C/C(=O)O)cc(C)c2O1`, the half-life came out at 24.1 min.

Take `COC(=O)CCC(=O)Oc1cc(C)c2c(c1)CC[C@@](C)(CC/C=C(\C)CC/C=C(\C)CCC=C(C)C)O2`: the half-life turned out to be 30.3 min.

With `CC(C)=CCC/C(C)=C/CC/C(C)=C/CC[C@]1(C)CCc2cc(OC(=O)CCCCC(=O)O)cc(C)c2O1`, the half-life worked out at 2.1 min.

System in a further series: not listed separately
The series can be described thus: Stability in C57BL/6J mouse plasma assessed as half-life. In kind it is ADME, cell-free.
Details: not given
As for `CCN(CC)CCOC(=O)c1ccc(N)cc1` [PROCAINE], the half-life turned out to be 13.2 min.

System in another series: not listed separately
Put plainly: Stability in […] human plasma assessed as half-life. Format: ADME, cell-free.
Details: not given
As for `CCN(CC)CCOC(=O)c1ccc(N)cc1` [PROCAINE], the half-life was 0.7 min.
